Assay results taken from patent US7368255B2, “RUNX3 gene showing anti-tumor activity and use thereof” (priority 2001, dated 2008).
“Also recorded” adds a separate entry of the source.

Key:
RUNX3 gene expression = assay: Reactivation of RUNX3 gene expression, RT-PCR; type: cell-based, human; details: AZA 300 nM, TSA 1 mM, alone or in combination, 3 days, NUGC3, MKN28, MKN74 cell lines
Protocol: To determine whether the DNA methylation observed in Example 5-1 is the direct cause of the inactivation of the RUNX3 gene, the influence of a DNA methyltransferase inhibitor and a histone deacetylase inhibitor on the reactivation of the RUNX3 gene expression was analyzed.
The NUGC3, MKN28, and MKN74 cell lines (selected randomly from the cell lines showing no RUNX3 gene expression by RT-PCR analysis) were treated with […] (AZA, 300 nM), which inhibits DNA methyltransferase, and trichostatin A (TSA, […]), which inhibits histone deacetylase, alone or in combination. After 3 days of the treatment, total RNA was isolated from each cell line in accordance with the same standardized single-step guanidium method used in Example 4-1, and then analyzed for the expression of the RUNX3 gene by RT-PCR using the PS-N primer pair of SEQ. ID. NOS: 4 and 5.

SNU16 cells [1] = assay: TGF-β1-induced cell death, viable cell counts; type: cell-based; details: TGF-β1 1 ng/ml
SNU16-Rx3-AS-c11 cells [2] = assay: TGF-β1-induced cell death, viable cell counts; type: cell-based; details: TGF-β1 1 ng/ml; SNU16-Rx3-AS-c11 cells (antisense RUNX3)
SNU16-Rx3-AS-c12 cells [3] = assay: TGF-β1-induced cell death, viable cell counts; type: cell-based; details: TGF-β1 1 ng/ml; SNU16-Rx3-AS-c12 cells (antisense RUNX3)
SNU16 cells [4] = assay: Apoptotic DNA bands by genomic DNA electrophoresis after TGF-β1; type: cell-based; details: TGF-β1 1 ng/ml, 6 hours
Protocol: (§1) Cells dying through the programmed cell death pathway reveal a distinct pattern of DNA bands when electrophoresed in an agarose gel. After being treated with 1 ng/ml TGF-β1 for 6 hours, the control-SNU16, SNU16-Rx3-AS-c11, and SNU16-Rx3-AS-c12 strains were lysed to isolate genomic DNAs according to a standard method (Sambrook et al., 1988, Molecular Cloning: a laboratory manual, 2nd Ed. Cold Spring Harbor Laboratory, Cold Spring Harbor, N.Y., USA). 0.2 μg of each of the genomic DNA preparations was electrophoresed on a 1.5% agarose gel and visualized with ethidium bromide under UV light.

SNU16-Rx3-AS-c11 cells [5] = assay: as above; type: cell-based; details: TGF-β1 1 ng/ml, 6 hours
Protocol: as §1

SNU16-Rx3-AS-c12 cells [6] = assay: as above; type: cell-based; details: TGF-β1 1 ng/ml, 6 hours
Protocol: as §1

Molecule | expression of the RUNX3 gene (RT-PCR) (RUNX3 gene expression) | time within which SNU16 cells were killed (SNU16 cells [1]) [days] | cell death after TGF-β1 treatment (SNU16-Rx3-AS-c11 cells [2]) | cell death after TGF-β1 treatment (SNU16-Rx3-AS-c12 cells [3]) | apoptotic DNA bands (SNU16 cells [4]) | apoptotic DNA bands (SNU16-Rx3-AS-c11 cells [5]) | apoptotic DNA bands (SNU16-Rx3-AS-c12 cells [6]) | expression of the RUNX3 gene (RT-PCR) (RUNX3 gene expression; listed as 5-aza-2-deoxycytidine)
CC(/C=C/C(=O)NO)=C\[C@@H](C)C(=O)c1ccc(N(C)C)cc1 [trichostatin A] | allows the RUNX3 gene to be expressed; also recorded: the expression of the RUNX3 gene was induced | – | – | – | – | – | – | –
TGF-β1: TGF-β1 cytokine used at 1 ng/ml to induce cell death in SNU16 cells | – | ≤ 2 | did not kill | did not kill | apoptotic DNA bands were formed; also recorded: These bands are apparent | no apoptotic bands were observed | no apoptotic bands were observed | –
Nc1ncn([C@H]2C[C@H](O)[C@@H](CO)O2)c(=O)n1 | the expression of the RUNX3 gene was induced | – | – | – | – | – | – | allows the RUNX3 gene to be expressed
